Measured values published in ChEMBL document CHEMBL4725384, “Monoaryl derivatives as transthyretin fibril formation inhibitors: Design, synthesis, biological evaluation and structural analysis” (Bioorg Med Chem, 2020).
Active and inactive are the calls of the source. The calls are words filed in the database; no cut-off is given here.

Experiments:
[1] = target: Transthyretin (Homo sapiens) (UniProt P02766); experiment: Stabilization of wild type human transthyretin expressed in Escherichia coli BL21(DE3) assessed as decrease in TTR-amyloid beta fibril formation at 10 uM preincubated for 6 hrs with transthyretin followed by measuring after 96 hrs maintaining pH of 4.4 by thioflavin T binding assay relative to control
[2] = target: Transthyretin (Homo sapiens) (UniProt P02766); experiment: Stabilization of wild type human transthyretin expressed in Escherichia coli BL21(DE3) assessed as fibril formation at 7.2 uM preincubated for 30 mins with transthyretin followed by measuring after 72 hrs maintaining pH of 4.4 by UV-Visible spectrophotometer relative to control

Compound | inhibition [1] | Activity [2] [%]
O=C(O)CCO/N=C/c1cc(Br)cc(Br)c1O | Active | 16
O=C(O)CCO/N=C/c1ccc(O)cc1O | 68% | 38
O=C(O)CO/N=C/c1ccc(O)cc1 |  | 59
O=C(O[C@@H]1Cc2c(O)cc(O)cc2O[C@@H]1c1cc(O)c(O)c(O)c1)c1cc(O)c(O)c(O)c1 | 53% | 
O=C(O)CCO/N=C/c1cc(O)cc(O)c1 |  | 39
O=C(O)CO/N=C/c1cccc(O)c1 |  | 100
O=C(O)CO/N=C/c1cccc(OCC(=O)O)c1 | inactive | 100
O=C(O)CO/N=C/c1cc(Br)cc(Br)c1OCC(=O)O | inactive | 86
O=C(O)CCO/N=C/c1ccccc1O | Active | 38
O=C(O)CCO/N=C/c1ccc(O)cc1 | Active | 17
O=C(O)CO/N=C/c1ccc(OCC(=O)O)cc1 | inactive | 80
O=C(O)CCO/N=C/c1ccc(O)c(O)c1 |  | 34
O=C(O)CO/N=C/c1cc(Br)cc(Br)c1O |  | 35
O=C(O)CCO/N=C/c1cccc(O)c1 | Active | 42
O=C(O)CO/N=C/c1ccccc1O |  | 100
O=C(O)c1cc(-c2ccc(F)cc2F)ccc1O |  | 9
O=C(O)CO/N=C/c1ccccc1OCC(=O)O | inactive | 100
